Calls of active or inactive are those of the source.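 Rule for the calls: active = compounds giving half or more protection of infected cells from virus-caused growth loss, again on retest; inactive = the rest.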 Some results are limits rather than exact numbers.

In the assay the test system is CEM cells HIV-1 protection, formazan growth assay. Nature of the assay: NCI AIDS Antiviral Assay. The settings on record: for IC50: measured here: growth of uninfected CEM cells. In short, it runs like this: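 Category rules: moderately active means at least 50% protection on retest, and confirmed active means 100% protection reproducibly. The underlying data came from a formazan growth assay in HIV-1-infected CEM cells.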

`Cc1nc2nc3n(c(=O)c2nc1C)CCS3`: the result was inactive.

In the case of `Cn1cnc([N+](=O)[O-])c1Sc1n[nH]c(-c2ccc(Cl)cc2)n1`, the EC50 (in general, the concentration that produces a half-maximal response) was greater than 107 µM and the 50% inhibitory concentration (IC50) – broadly, the point on the concentration scale where inhibition reaches its midpoint – is 6.76 µM.

As for `CCOC(=O)C(NC(C)=O)[CH](c1ccc(OC)cc1)[Sn]([c]1ccccc1)([c]1ccccc1)[c]1ccccc1` (stereo unspecified), the EC50 is greater than 200 µM and the 50% inhibitory concentration (IC50) stood at 1.07 µM.

With `COC(=O)c1ccc2c(c1)CC1(C2)Cc2cc3c(cc2C1)CCC3`, the EC50 is greater than 200 µM and the IC50 was greater than 200 µM.

With `O=C(C1OC1c1ccc([N+](=O)[O-])cc1)C12CC3CC(CC(C3)C1)C2` (stereo unspecified), the EC50 was greater than 200 µM and the half-maximal inhibitory concentration (IC50) was 12.3 µM.

Regarding `COc1cc(C2c3cc(O)c(OC)cc3C[C@@H]3C(=O)OCC23)ccc1O` (stereo partly specified), the EC50 was greater than 263 µM and the concentration for half-maximal inhibition (IC50) is greater than 263 µM.

For the compound `Sc1ccccc1N=Cc1cccs1`, the EC50 was greater than 200 µM and the IC50 was 93.3 µM.

As for `Oc1c(O)c(Cc2ccccc2)c(Cc2ccccc2)c(Cc2ccccc2)c1Cc1ccccc1`, the EC50 was greater than 200 µM and the IC50 turned out to be 32.4 µM.

For the compound `CCOC(=O)C1=C(C)NC(CO)=C(C(=O)OCC)C1c1cccc([N+](=O)[O-])c1` (stereo unspecified), the EC50 was greater than 2 µM and the 50% inhibitory concentration (IC50) came to 0.355 µM.

In the case of `NCC1CCC(C(=O)O)CC1` (stereo unspecified), the EC50 is greater than 200 µM and the IC50 is greater than 200 µM.

Consider `N.N.N.N.N.NC(=O)c1nn[n-]n1.[Cl-].[Co+3]`, for which the EC50 was greater than 759 µM and the half-inhibitory concentration (IC50) was greater than 759 µM.

Regarding `COC(=O)NNC(c1ccc(Cl)cc1)c1ccc(Cl)cc1`, the EC50 was greater than 200 µM and the concentration for half-maximal inhibition (IC50) came to 30.9 µM.

Turning to `[N-]=[N+]=Nc1c(Cc2ccccc2)c(=O)oc2ccccc12`, the EC50 was greater than 200 µM and the IC50 amounted to 32.4 µM.

For the compound `CC(C)=CCC[C@@H](C)C1=C(N)C(O)=C(C)C(=O)C1=O`, the EC50 is greater than 200 µM and the IC50 worked out at 13.5 µM.

As for `Clc1cc(Cl)c2n[se]nc2c1`, the result was inactive.

Consider `CCOC(=O)C1(N=O)CCCCC1=O` (stereo unspecified), for which the EC50 was greater than 200 µM and the IC50 was greater than 200 µM.

On to `CC(CO)S(=O)(=O)O` (stereo unspecified), for which the EC50 is greater than 200 µM and the 50% inhibitory concentration (IC50) is greater than 200 µM.

With `CC(=O)OC12CCCCC1C1(CCCC1)NC2=O` (stereo unspecified), the outcome was inactive.

Regarding `CN(C)c1nc2n(CCO)c(-c3ccccc3)c(-c3ccccc3)nc-2c(=O)n1`, the EC50 is 30.9 µM and the IC50 was greater than 100 µM.

Regarding `Cn1cnc([N+](=O)[O-])c1Sc1nnnn1-c1ccccc1`, the EC50 is greater than 224 µM and the IC50 was determined as 10.7 µM.

In the case of `CC1OC(n2cc(C(F)(F)F)c(=O)[nH]c2=O)C=CC1O` (stereo unspecified), the EC50 was greater than 851 µM and the IC50 stood at 148 µM.

With `O=c1oc2ccccc2cc1P(=O)(O)O`, the EC50 was greater than 200 µM and the half-maximal inhibitory concentration (IC50) is 8.91 µM.

In the case of `Cc1cc2c(c(N)c1C)C(=O)c1ccccc1C2=O`, the result was inactive.

For the compound `CC1=C[C@H]2O[C@@H]3C[C@H]4OC(=O)/C=C\C=C\C(C(C)O)OCC(O)C(C)CC(=O)OC[C@@]2(C[C@@H]1O)[C@]4(C)[C@@]31CO1` (stereo partly specified), the EC50 is greater than 2 µM and the IC50 turned out to be 0.0631 µM.

Regarding `C=C1SC(=Nc2cccc(OC)c2)N(c2nc(Cl)nc(Cl)n2)C12CCCCC2`, the EC50 was greater than 155 µM and the IC50 is 52.5 µM.

Consider `CN(C)c1ccc(C2=C([O-])c3cc(-[n+]4ccccc4)ccc3C2=O)cc1`, for which the EC50 was greater than 200 µM and the half-inhibitory concentration (IC50) was 178 µM.

`CC1Oc2cc3c(-c4c(O)cc(O)c5c(O)c6c(cc45)OC(C)C(C)C6=O)c(O)cc(O)c3c(O)c2C(=O)C1C` (stereo unspecified): the EC50 was greater than 34.7 µM and the IC50 came to 0.38 µM.

Take `Cn1c(=O)c2c(nc(CCCCCc3nc4c(c(=O)n(C)c(=O)n4C)n3C)n2C)n(C)c1=O`: the EC50 was greater than 200 µM and the IC50 is greater than 200 µM.

With `Cc1ccc2c(c1)C(O)(c1ccccc1)C(c1ccccc1)C(c1ccccc1)O2` (stereo unspecified), the EC50 was greater than 200 µM and the IC50 turned out to be 6.92 µM.

Consider `CC12CC(=O)CC1(C)CC(=O)C2` (stereo unspecified), for which the EC50 is greater than 537 µM and the concentration for half-maximal inhibition (IC50) was greater than 537 µM.

The values are drawn from PubChem BioAssay AID179 (DTP/NCI, 2004).
